# Experimental data as given in US11299435B2, “Urea-based composition and method for the manufacture thereof” (Yara International ASA, priority 2017, dated 2022).
# Assays:
# Type in all cases: physicochemical
# [1] = Stability of nBTPT in solution with added alkaline compound (HPLC nBTPT content); settings: closed plastic containers
# Excerpt: Lab scale experiments with nBTPT in solution: • An aqueous solution of nBTPT was made by dissolving 3 g nBTPT powder in 1 L water. In a next step an alkaline compound could be added. • A solution of 17.5% nBTPT in PG was made by dissolving step by step 17.5 g nBTPT powder in 82.5 g PG. In a next step, an alkaline compound could be added. • The commercial liquid nBTPT formulation Agrotain® Ultra was mixed with and/or without the presence of an alkaline stabilizer
# (§1) Closed plastic container at room temperature (20° C.)
# (§2) 50° C. closed plastic container
# (§3) HPLC analysis of nBTPT is done as described in the procedure CEN 15688-2007.
# In a first experiment, a solution of 17.5% nBTPT in PG was made and in a next step an alkaline compound was added. Subsequently, the solutions were stored in closed plastic containers for 5 days at room temperature (20° C.) and subsequently 7 days at 50° C. and the decomposition of nBTPT was followed.
# In a second experiment, an alkaline compound was added to Agrotain® Ultra. Subsequently, the nBTPT solutions were stored in closed plastic containers for 5 days at room temperature (20° C.) and the decomposition of nBTPT was followed.
# In a third experiment, an aqueous solution of 3.0 g nBTPT in 1 L water was made and in a next step an alkaline compound was added. Subsequently, the aqueous solutions were stored in closed plastic containers for 5 days at room temperature (20° C.) and the decomposition of nBTPT was followed.
# [2] = Stability of nBTPT applied on moisturized urea granules during storage (HPLC nBTPT content); settings: vs no stabilizer, closed plastic containers, 70° C., 15 days (FIG. 6)
# Procedure: For lab scale experiments for applying nBTPT on urea, nBTPT, as powder or as liquid formulations, was applied onto urea by adding 1.2 kg of urea to a lab scale drum. In a next step, the nBTPT material, with and/or without the presence of an alkaline stabilizer, was slowly added. A residence time of 10 minutes was applied and the rotating speed of the drum was consequently the same in each experiment. Larger scale experiments with amounts up to 40 kg of fertilizer material were performed in a concrete mixer.
# (§4) 70° C. closed plastic container
# as §3
# 600 ppm nBTPT powder was mixed with and/or without the presence of an alkaline stabilizer and subsequently added on urea granules, which were moisturized from 0.20% H2O to 0.60% H2O. This moisturization was done to create a higher moisture level of the urea granules to simulate moisture take up during storage in market conditions.
# Subsequently, the urea granules were stored for 15 days at 70° C. in closed plastic containers and the decomposition of nBTPT was followed.
# [3] = Stability of nBTPT melt-mixed in urea granules during storage (HPLC nBTPT content)
# Procedure: For pilot scale experiments applying nBTPT in urea, nBTPT, as powder or as liquid formulations, was mixed in urea in the following way: nBTPT was added to urea melt, with and/or without the presence of an alkaline stabilizer and subsequently, this mixture was granulated in a fluidized bed granulator.
# nBTPT in urea granules, with and/or without the presence of an alkaline stabilizer, were produced in the urea pilot plant in Sluiskil (Yara International ASA). This pilot plant has a batch capacity—after sieving—of about 50 kg of on-spec product. It basically consists of a stirred urea preparation vessel with an active volume of about 150 litres and a fluidized bed granulator of the UFT-type, equipped with a spraying nozzle of the spiral-type or HFT-type (EP 1701798 B1, 2005, Yara International ASA).
# The samples were stored under several conditions, dependent on the type of samples:
# as §1
# Open to air at 20° C. with a relative humidity of 80%
# For some samples, an accelerated stability test was done storing these samples at elevated temperatures:
# 40° C. closed plastic container
# as §2, §4, §3
# In the first experiment, 500 ppm nBTPT powder was added into urea melt, with and/or without the presence of an alkaline stabilizer, and in a next step this melt composition was converted into urea granules in a fluidized bed granulator. Subsequently, the granules were stored for 98 days at 40° C. in closed plastic containers and the decomposition of nBTPT was followed.
# In a second experiment, the effect of other alkaline stabilizers such as CaO and CaCO3 was shown in comparison with NaOH. 500 ppm nBTPT powder was added into urea melt, containing an alkaline stabilizer, and in a next step, this melt composition was converted into urea granules in a fluidized bed granulator. Subsequently, the granules were stored for 109 days at 50° C. in closed plastic containers and the decomposition of nBTPT was followed.
# On top of that, the granules were also stored for 1564 days (more than 4 years!) at room temperature (20° C.) in closed plastic containers and the decomposition of nBTPT was followed. […] With the addition of 1% CaO or CaCO3 a recovery of nBTPT higher than 40% was found after a long storage period of more than 4 years at room temperature.
# In a third experiment, 500 ppm nBTPT powder was added into a urea melt, with and/or without the presence of 0.1% B as borax, and in a next step this melt composition was converted into urea granules in a fluidized bed granulator. Subsequently, the granules were stored for 57 days at 20° C./80% R.H. in open plastic containers and the decomposition of nBTPT was followed.
# In a fourth experiment, 600 ppm nBTPT powder was added into a urea melt, with and/or without the presence of an alkaline stabilizer, and in a next step this melt composition was converted into urea granules in a fluidized bed granulator. Subsequently, the granules were stored for 15 days at 70° C. in closed plastic containers and the decomposition of nBTPT was followed.
smiles,measurement,setting,value
"CCCCNP(N)(N)=S [nBTPT, N-(n-butyl) thiophosphoric triamide]",effect on the stability of nBTPT in solution,"[1]; 17.5% nBTPT in propylene glycol (PG) + 5% CaO vs none, 5 days at 20° C. then 7 days at 50° C. (FIG. 7)",negative effect
same,effect on the stability of nBTPT in solution,"[1]; 17.5% nBTPT in propylene glycol (PG) + 5% NaOH vs none, 5 days at 20° C. then 7 days at 50° C. (FIG. 7)",negative effect
same,effect on the stability of nBTPT in solution,"[1]; aqueous solution 3 g nBTPT/L water + 1% CaO vs none, 5 days at 20° C. (FIG. 9)",negative effect
same,effect on the stability of nBTPT in solution,"[1]; aqueous solution 3 g nBTPT/L water + 1% Na2CO3 vs none, 5 days at 20° C. (FIG. 9)",negative effect
same,effect on the stability of nBTPT in solution,"[1]; aqueous solution 3 g nBTPT/L water + 1% NaHCO3 vs none, 5 days at 20° C. (FIG. 9)",negative effect
same,effect on the stability of nBTPT in solution,"[1]; aqueous solution 3 g nBTPT/L water + 1% NaOH vs none, 5 days at 20° C. (FIG. 9)",negative effect
same,effect on the stability of nBTPT on urea granules during storage,[2]; [600 ppm nBTPT powder + 2600 ppm MgO] on urea moisturized from 0.20% to 0.60% H2O,positive effect
same,effect on the stability of nBTPT on urea granules during storage,[2]; [600 ppm nBTPT powder + 6000 ppm CaCO3] on urea moisturized from 0.20% to 0.60% H2O,positive effect
same,stability of nBTPT in urea,"[3]; 500 ppm nBTPT powder in urea + 1% CaCO3, compared with urea + 500 ppm NaOH, closed plastic containers, 50° C., 109 days (FIG. 2)",even higher stability
same,stability of nBTPT in urea,"[3]; 500 ppm nBTPT powder in urea + 1% CaCO3, compared with urea + 500 ppm NaOH, closed plastic containers, room temperature (20° C.), 1564 days (FIG. 3)",even higher stability
same,stability of nBTPT in urea,"[3]; 500 ppm nBTPT powder in urea + 1% CaO, compared with urea + 500 ppm NaOH, closed plastic containers, 50° C., 109 days (FIG. 2)",even higher stability
same,stability of nBTPT in urea,"[3]; 500 ppm nBTPT powder in urea + 1% CaO, compared with urea + 500 ppm NaOH, closed plastic containers, room temperature (20° C.), 1564 days (FIG. 3)",even higher stability
same,effect on the stability of nBTPT in urea granules during storage,"[3]; 500 ppm nBTPT powder in urea + NaOH (200, 500, 1000 ppm) vs no NaOH, closed plastic containers, 40° C., 98 days, stability increases with NaOH dosage (FIG. 1)",positive effect
same,effect on the stability of nBTPT in urea granules during storage,"[3]; 600 ppm nBTPT powder in urea + 1% CaCO3 vs no stabilizer, closed plastic containers, 70° C., 15 days (FIG. 5)",big positive effect
same,effect on the stability of nBTPT in urea granules during storage,"[3]; 600 ppm nBTPT powder in urea + 1% CaO vs no stabilizer, closed plastic containers, 70° C., 15 days (FIG. 5)",big positive effect
same,stability of the urease inhibitor in the composition according to the invention,[3]; bagged conditions without the presence of a head space (exclusion of moisture and atmospheric gasses),further increased
same,effect on the stability of nBTPT in urea granules during storage,"[3]; nBTPT powder in urea + 0.1% B as borax vs no borax, open plastic containers, 20° C./80% R.H., 57 days (FIG. 4)",big positive effect
